Results taken from BigSolDB 2.1.

Details: in tetrachloromethane

C[C@@H]1CC[C@@]2(OC1)O[C@H]1C[C@H]3[C@@H]4CC=C5C[C@@H](O)CC[C@]5(C)[C@H]4CC[C@]3(C)[C@H]1[C@@H]2C
Details	solubility (mole fraction)
291.95 K	0.00286
297.45 K	0.00334
299.85 K	0.00381
302.75 K	0.00429
306.95 K	0.00487
308.95 K	0.00536
311.35 K	0.00578
313.65 K	0.0063
316.15 K	0.00676
317.95 K	0.00718
318.95 K	0.00763
320.55 K	0.00804
322.35 K	0.00857
323.65 K	0.00905
325.15 K	0.0095
326.35 K	0.0099
327.85 K	0.0105
328.95 K	0.0109
